Reference: US8298798B2, “Production of C5-C8 alcohols using evolved enzymes and metabolically engineered microorganisms” (The Regents of the University of California, priority 2008, dated 2012)

Target: F381L/V461A KIVD (Lactococcus lactis, UniProt A0A0B8QZ66, form not given/V461A)
Assay: coupled enzymatic assay of KIVD decarboxylation activity
Format: biochemical
Conditions: substrate of V461A/F381L KIVD, 30° C., pH 6.8
Description: Protein Expression and Purification. Both gene fragments encoding wild type and F381L/V461A KIVD were amplified from plasmid pZE_LeuABCDKA6 using primers hiskivd_tevfwd and hiskivd_bamrev. After digestion with BamHI, the gene fragments were inserted into expression plasmid pQE9 (Qiagen) to yield pQE_hiskivd_wt and pQE_hiskivd_FL. The ADH6 gene fragment was amplified from yeast genomic DNA using primers hisadh_tevfwd and hisadh_bamrev, digested with BamHI and inserted into pQE9 to generate pQE_hisadh6. Similarly, genes encoding G462D and G462D/S139G LeuA were amplified from plasmid pZE_LeuABCDKA6 using primers hisleua_tevfwd and hisleua_bamrev. After digestion with BamHI, the PCR products were ligated into pQE9 to create pQE_hisleua_GD and pQE_hisleua_GS. […]
Enzymatic Assay of KIVD. […] Inc. Protein concentration was determined by measuring UV absorbance at 280 nm. The decarboxylation activity of KIVD was measured at 30° C. using a coupled enzymatic assay method. […] The reactions were started by adding 2 μl KIVD (final concentration: for KIV, 20 nM wt KIVD, 200 nM F381L/V461A KIVD; for KHV, 50 nM both), and the consumption of NADPH was monitored at 340 nm (extinction coefficient, 6.22 mM^−1 cm^−1). Kinetic parameters (kcat and Km) were determined by fitting initial velocity data to the Michaelis-Menten equation using Origin.

Compound: CC(C)C(=O)C(=O)O [2-Ketoisovalerate]
- Km: 7.7 mM

Compound: CC[C@H](C)CC(=O)C(=O)O [(S)-2-keto-4-methylhexanoate]
- Km: 0.22 mM
